Reference: US9447156B2, “Methods and compositions for inhibiting neddylation of proteins” (St. Jude Children's Research Hospital, priority 2011, dated 2016)
Read-outs that look alike come from different tables or passages of the source. Positions of bridges follow the written chain, without caps; N, C: chain ends. Non-standard residues stand in square brackets, D forms with d. Residues, ends and D or L forms follow the SMILES beside them. No end group written: not given here. *: point of attachment. S5 = C=CCCC[C@](C)(N)C(=O)O; For = O=C*

Columns and labels:
hDcn1^P = biological target: T1, hDcn1^P (Homo sapiens, UniProt Q96GG9); test: ITC binding of Ubc12/Ube2f peptides to hDcn1^P; details: for ΔH: change in enthalpy; for ΔS: change in entropy
T1 construct: hDcn1^P corresponds to residues 62 to the C-terminal residue 259 of hDcn1; GST (cleaved yes); made in house; host or cells: E. coli BL21(DE3)Gold
Method: (§1) Protein samples were buffer matched by desalting over a NAP-5 column (GE Healthcare) into 50 mM Hepes, 125 mM NaCl, 1 mM BME, pH 7.0 (ITC buffer). Peptides were dissolved by weight to a final concentration of 10 mM in ITC buffer and diluted further in ITC buffer as required for the experiments. Measurements were performed using a MicroCal ITC200. hDcn1^P or yDcn1^P were placed into the sample cell at a final concentration of 400 μM at 18° C. The peptide ligands (4 mM) were constantly injected (1.5 μl). The interval time between each injection was 3 minutes and the duration of each injection was 3 seconds. For titrations involving hE1 and yE1, proteins were placed into the sample cell at a final concentration of 25 μM at 22° C. Peptide ligands (250 μM) were constantly injected (2.5 μl). The interval time between each injection was three minutes and the duration of each injection was 5 seconds. For hCul1^ctd-Rbx1:hDcn1^P binding, proteins were buffer matched by desalting over a NAP-5 column in 25 mM Tris, 0.1 M NaCl, 1 mM BME, pH 7.6. hCul1^ctd-Rbx1 was placed into the sample cell at a final concentration of 55 μM at 22° C. hDcn1^P (550 μM) was constantly injected (2.5 μl). The interval time between each injection was 3 minutes and the duration of each injection was 5 seconds. Obtained spectra were evaluated using Origin (V 7.0) to determine heats of binding and Kd values.
The affinity of various peptides for hDcn1^P, hDcn2^P, hDcn3^P, hDcn4^P, and hDcn5^P was tested using isothermal titration calorimetry as described in Example 1 and is provided in Table 29.

[1] = biological target: T2, hE1 for Nedd8 (APPBP1-UBA3) (Homo sapiens, UniProt Q8TBC4); test: ITC binding of Ubc12 peptides to hE1; details: for Kd / ΔH / ΔS: ITC; for Kd: protein hE1, titrant Ubc12 peptide; for ΔH / ΔS: protein hE1; for ΔH: change in enthalpy; for ΔS: change in entropy
T2 construct: made in house; host or cells: E. coli
T2 sequence (Q8TBC4 22-463 limits assumed): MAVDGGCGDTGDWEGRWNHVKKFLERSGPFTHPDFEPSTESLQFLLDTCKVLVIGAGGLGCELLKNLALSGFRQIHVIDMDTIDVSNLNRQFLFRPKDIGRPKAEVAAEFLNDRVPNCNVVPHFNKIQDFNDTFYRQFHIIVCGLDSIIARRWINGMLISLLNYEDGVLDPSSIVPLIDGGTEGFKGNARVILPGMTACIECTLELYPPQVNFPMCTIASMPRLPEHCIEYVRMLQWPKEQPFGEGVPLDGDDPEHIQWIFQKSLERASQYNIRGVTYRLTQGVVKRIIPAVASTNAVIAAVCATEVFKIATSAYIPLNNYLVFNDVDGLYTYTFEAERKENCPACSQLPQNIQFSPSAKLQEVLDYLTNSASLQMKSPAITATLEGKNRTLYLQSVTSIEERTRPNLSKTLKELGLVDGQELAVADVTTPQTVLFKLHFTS
T2 sequence (Q13564 1-534 partner): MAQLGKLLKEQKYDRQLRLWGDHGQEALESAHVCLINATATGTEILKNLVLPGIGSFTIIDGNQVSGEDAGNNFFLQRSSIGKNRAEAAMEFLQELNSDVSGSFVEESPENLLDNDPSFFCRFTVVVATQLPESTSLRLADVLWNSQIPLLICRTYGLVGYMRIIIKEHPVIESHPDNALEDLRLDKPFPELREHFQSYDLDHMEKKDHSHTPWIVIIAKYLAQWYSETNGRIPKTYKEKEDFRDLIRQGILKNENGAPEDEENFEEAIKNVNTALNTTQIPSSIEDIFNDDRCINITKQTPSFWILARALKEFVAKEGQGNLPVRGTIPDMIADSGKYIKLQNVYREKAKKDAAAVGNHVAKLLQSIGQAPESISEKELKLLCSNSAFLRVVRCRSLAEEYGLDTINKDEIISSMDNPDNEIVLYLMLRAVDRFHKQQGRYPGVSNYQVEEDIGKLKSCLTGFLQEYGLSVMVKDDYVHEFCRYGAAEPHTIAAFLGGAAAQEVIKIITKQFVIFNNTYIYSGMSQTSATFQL
Method: as §1

yDcn1^P = biological target: T3, yDcn1^P (Saccharomyces cerevisiae, UniProt Q12395); test: ITC binding of Ubc12 peptides to yDcn1^P; parameters: species or system S. cerevisiae; details: ITC, protein yDcn1^P
T3 construct: made in house; host or cells: E. coli
T3 sequence (Q12395 70-269): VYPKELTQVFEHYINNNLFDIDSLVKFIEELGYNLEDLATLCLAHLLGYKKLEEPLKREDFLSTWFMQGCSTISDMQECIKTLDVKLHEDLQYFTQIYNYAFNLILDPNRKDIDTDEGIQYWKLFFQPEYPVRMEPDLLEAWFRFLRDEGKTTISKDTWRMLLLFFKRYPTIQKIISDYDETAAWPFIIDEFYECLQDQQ
Method: as §1, with “Measurements were performed using a MicroCal ITC200. hDcn1^P or yDcn1^P were placed into the sample cell at a final concentration of 400 μM at 18° C.” left out, “[…])” for “hDcn1^P (550 μM)”, “seconds.” for “seconds. Obtained spectra were evaluated using Origin (V 7.0) to determine heats of binding and Kd values.”

[2] = Table 29, peptides with amidated carboxy-terminus, read-out: Binding Kd for hDcn1^P
[3] = protein hDcn1^P, titrant Ubc12 peptide, read-out: Kd

T1 sequence (Q96GG9 62-259): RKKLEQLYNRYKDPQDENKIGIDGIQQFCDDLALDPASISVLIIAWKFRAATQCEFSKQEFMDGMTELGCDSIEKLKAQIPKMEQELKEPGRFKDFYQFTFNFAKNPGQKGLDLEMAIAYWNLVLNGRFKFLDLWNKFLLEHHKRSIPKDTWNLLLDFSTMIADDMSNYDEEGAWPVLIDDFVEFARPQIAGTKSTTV

| ΔH (hDcn1^P; protein hDcn1^P) | ΔS (hDcn1^P; protein hDcn1^P) | Kd [1] | ΔH [1] | ΔS [1] | Molecule | other results |
| --- | --- | --- | --- | --- | --- | --- |
| −3,386 cal/mol | 19.3 cal/mol/deg |  |  |  | CC[C@H](C)[C@H](NC(=O)[C@H](CCSC)NC(C)=O)C(=O)N[C@@H](CCCCN)C(=O)N[C@@H](CC(C)C)C(=O)N[C@@]1(C)CCCC=CCCC[C@@](C)(C(=O)N[C@@H](CCC(N)=O)C(=O)N[C@@H](CCCCN)C(=O)N[C@@H](CCCCN)C(N)=O)NC(=O)[C@H](CCCCN)NC(=O)[C@H](CC(C)C)NC(=O)[C@H](CO)NC1=O [Acetyl-hUbc12^1-12 (5:9Staple)] (Ac-MIKL[S5]SLK[S5]QKK-NH2; staple 5-9) |  |
|  |  |  |  |  | MIKLFSLKQQKKEEESAGGTKGSSKK-NH2 [hUbc12^1−26] | Kd (hDcn1^P; [2]): > 200 µM |
| −6,107 cal/mol | 5.84 cal/mol/deg | 943 nM | −9,425 cal/mol | −4.79 cal/mol/deg | Ac-MIKLFSLKQQKKEEESAGGTKGSSKK-NH2 [Acetyl-hUbc12^1-26] |  |
| −4,992 cal/mol | 8.79 cal/mol/deg | 630 nM | −11,490 cal/mol | −11.0 cal/mol/deg | CC[C@H](C)[C@H](NC(=O)[C@H](CCSC)NC(C)=O)C(=O)N[C@@H](CCCCN)C(=O)N[C@@H](CC(C)C)C(=O)N[C@@H](Cc1ccccc1)C(=O)N[C@@H](CO)C(=O)N[C@@H](CC(C)C)C(=O)N[C@@H](CCCCN)C(=O)N[C@@H](CCC(N)=O)C(=O)N[C@@H](CCC(N)=O)C(=O)N[C@@H](CCCCN)C(=O)N[C@@H](CCCCN)C(N)=O [Acetyl-hUbc12^1-12] |  |
|  |  |  |  |  | Ac-IKLFSLKQQKKEEESAGGTKGSSKK-NH2 [hUbc12^Ac−2−26] | Kd (hDcn1^P; [2]): > 150 µM |
| 1,259 cal/mol | 22.2 cal/mol/deg | 585 nM | −8,881 cal/mol | −1.99 cal/mol/deg | H-MIKLFSLKQQKKEEESAGGTKGSSKK-NH2 [hUbc12^1-26] | Kd (hDcn1^P; [3]): > 130 µM |
|  |  |  |  |  | CC[C@H](C)[C@H](NC(=O)[C@H](CO)NC(=O)[C@H](CO)NC(=O)[C@H](CO)NC(=O)[C@H](CC(N)=O)NC(=O)[C@H](CCC(=O)O)NC(=O)[C@H](CC(N)=O)NC(=O)[C@H](CCC(=O)O)NC(=O)[C@H](CCCCN)NC(=O)[C@H](CCC(N)=O)NC(=O)[C@H](CCCCN)NC(=O)[C@H](CCCCN)NC(=O)[C@H](CCCCN)NC(=O)[C@H](CCC(N)=O)NC(=O)[C@H](CC(C)C)NC(=O)[C@H](CCC(N)=O)NC(=O)[C@H](CCCNC(=N)N)NC(=O)[C@H](CC(C)C)NC(=O)[C@H](CCCCN)NC(=O)[C@H](CC(C)C)NC(=O)[C@H](CCSC)NC=O)C(=O)N[C@@H](CCC(N)=O)C(=O)N1CCC[C@H]1C(=O)N[C@@H](CC(N)=O)C(N)=O [Formyl-yUbc12^1-24] (For-MLKLRQLQKKKQKENENSSSIQPN-NH2) | ΔH (yDcn1^P; change in enthalpy): 2,824 cal/mol; ΔS (yDcn1^P; change in entropy): 33.4 cal/mol/deg |
| 1,719 cal/mol | 24.1 cal/mol/deg | 390 nM | −8,899 cal/mol | −1.24 cal/mol/deg | Ac-IKLFSLKQQKKEEESAGGTKGSSKK-NH2 [Acetyl-hUbc12^2-26] | Kd (hDcn1^P; [3]): > 100 µM |
|  |  |  |  |  | AcetylhUbc12^Ac1-12(5,9 Staple): Acetylated hUbc12 1-12 with Phe5 and Gln9 replaced with (S)-2-(4'-pentenyl)alanine, side-chains covalently linked (Ac-MIKL[S5]SLK[S5]QKK-NH2; staple 5-9) | binding to E1 ([1]; data not shown): no longer binds E1 |
| −4,893 cal/mol | 5.79 cal/mol/deg |  |  |  | CC[C@H](C)[C@H](NC(=O)[C@H](CCSC)NC=O)C(=O)N[C@@H](CCCCN)C(=O)N[C@@H](CC(C)C)C(=O)N[C@@H](Cc1ccccc1)C(=O)N[C@@H](CO)C(=O)N[C@@H](CC(C)C)C(=O)N[C@@H](CCCCN)C(=O)N[C@@H](CCC(N)=O)C(=O)N[C@@H](CCC(N)=O)C(=O)N[C@@H](CCCCN)C(=O)N[C@@H](CCCCN)C(=O)N[C@@H](CCC(=O)O)C(=O)N[C@@H](CCC(=O)O)C(=O)N[C@@H](CCC(=O)O)C(=O)N[C@@H](CO)C(=O)N[C@@H](C)C(=O)NCC(=O)NCC(=O)N[C@H](C(=O)N[C@@H](CCCCN)C(=O)NCC(=O)N[C@@H](CO)C(=O)N[C@@H](CO)C(=O)N[C@@H](CCCCN)C(=O)N[C@@H](CCCCN)C(N)=O)[C@@H](C)O [Formyl-hUbcU^126] (For-MIKLFSLKQQKKEEESAGGTKGSSKK-NH2) |  |
|  |  |  |  |  | CCCC[C@H](N)C(=O)N[C@H](C(=O)N[C@@H](CCCCN)C(=O)N[C@@H](CC(C)C)C(=O)N[C@@H](Cc1ccccc1)C(=O)N[C@@H](CO)C(=O)N[C@@H](CC(C)C)C(=O)N[C@@H](CCCCN)C(=O)N[C@@H](CCC(N)=O)C(=O)N[C@@H](CCC(N)=O)C(=O)N[C@@H](CCCCN)C(=O)N[C@@H](CCCCN)C(N)=O)[C@@H](C)CC [hUbc12^1−12 (NorLeu)] | Kd (hDcn1^P; [2]): > 400 µM |
